Measured values as given in ChEMBL document CHEMBL5390258, “Recent Progress and Prospects of Small Molecules for NLRP3 Inflammasome Inhibition” (J Med Chem, 2023).
Each block holds one molecule with its values, some of them ahead of it.

Columns and labels:
[1] = biological target: T1, NACHT, LRR and PYD domains-containing protein 3 (Homo sapiens, UniProt Q96P20); experiment: Inhibition of NLRP3 in human PBMC cells assessed as reduction in Il-1beta production at 0.5 uM relative to control; assay type: cell-based
T1 sequence (Q96P20 whole entry, the tested form may be a part): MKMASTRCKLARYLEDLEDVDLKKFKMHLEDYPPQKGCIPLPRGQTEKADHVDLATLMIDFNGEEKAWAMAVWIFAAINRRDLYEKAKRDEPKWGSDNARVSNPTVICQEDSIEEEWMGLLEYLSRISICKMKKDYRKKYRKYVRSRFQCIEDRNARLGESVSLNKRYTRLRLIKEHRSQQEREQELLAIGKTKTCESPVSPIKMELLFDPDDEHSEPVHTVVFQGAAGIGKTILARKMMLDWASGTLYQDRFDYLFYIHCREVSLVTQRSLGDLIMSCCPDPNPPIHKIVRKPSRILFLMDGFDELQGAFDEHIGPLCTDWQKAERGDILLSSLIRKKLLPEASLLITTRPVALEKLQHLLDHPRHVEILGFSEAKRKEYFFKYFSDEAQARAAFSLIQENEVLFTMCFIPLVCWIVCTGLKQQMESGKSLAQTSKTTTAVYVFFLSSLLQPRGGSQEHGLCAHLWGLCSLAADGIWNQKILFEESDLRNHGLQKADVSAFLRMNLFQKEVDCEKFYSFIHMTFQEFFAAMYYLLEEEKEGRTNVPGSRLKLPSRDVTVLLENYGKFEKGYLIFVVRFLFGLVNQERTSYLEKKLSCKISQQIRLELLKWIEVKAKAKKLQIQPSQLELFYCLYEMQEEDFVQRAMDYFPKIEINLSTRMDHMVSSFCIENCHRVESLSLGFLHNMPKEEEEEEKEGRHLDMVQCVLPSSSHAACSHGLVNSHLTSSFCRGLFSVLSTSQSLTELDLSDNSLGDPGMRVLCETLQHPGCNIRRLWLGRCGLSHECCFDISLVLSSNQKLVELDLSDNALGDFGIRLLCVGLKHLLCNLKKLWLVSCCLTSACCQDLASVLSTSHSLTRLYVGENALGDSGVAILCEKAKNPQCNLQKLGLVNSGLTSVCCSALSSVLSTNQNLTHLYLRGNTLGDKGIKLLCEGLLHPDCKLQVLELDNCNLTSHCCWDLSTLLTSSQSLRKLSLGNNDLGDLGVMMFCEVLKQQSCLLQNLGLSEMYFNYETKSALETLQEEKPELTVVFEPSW

[2] = biological target: T2, NACHT, LRR and PYD domains-containing protein 3 (Mus musculus, UniProt Q8R4B8); experiment: Inhibition of NLRP3 in mouse BMDM cells assessed as reduction in IL-1beta production; assay type: cell-based
T2 sequence (Q8R4B8 whole entry, the tested form may be a part): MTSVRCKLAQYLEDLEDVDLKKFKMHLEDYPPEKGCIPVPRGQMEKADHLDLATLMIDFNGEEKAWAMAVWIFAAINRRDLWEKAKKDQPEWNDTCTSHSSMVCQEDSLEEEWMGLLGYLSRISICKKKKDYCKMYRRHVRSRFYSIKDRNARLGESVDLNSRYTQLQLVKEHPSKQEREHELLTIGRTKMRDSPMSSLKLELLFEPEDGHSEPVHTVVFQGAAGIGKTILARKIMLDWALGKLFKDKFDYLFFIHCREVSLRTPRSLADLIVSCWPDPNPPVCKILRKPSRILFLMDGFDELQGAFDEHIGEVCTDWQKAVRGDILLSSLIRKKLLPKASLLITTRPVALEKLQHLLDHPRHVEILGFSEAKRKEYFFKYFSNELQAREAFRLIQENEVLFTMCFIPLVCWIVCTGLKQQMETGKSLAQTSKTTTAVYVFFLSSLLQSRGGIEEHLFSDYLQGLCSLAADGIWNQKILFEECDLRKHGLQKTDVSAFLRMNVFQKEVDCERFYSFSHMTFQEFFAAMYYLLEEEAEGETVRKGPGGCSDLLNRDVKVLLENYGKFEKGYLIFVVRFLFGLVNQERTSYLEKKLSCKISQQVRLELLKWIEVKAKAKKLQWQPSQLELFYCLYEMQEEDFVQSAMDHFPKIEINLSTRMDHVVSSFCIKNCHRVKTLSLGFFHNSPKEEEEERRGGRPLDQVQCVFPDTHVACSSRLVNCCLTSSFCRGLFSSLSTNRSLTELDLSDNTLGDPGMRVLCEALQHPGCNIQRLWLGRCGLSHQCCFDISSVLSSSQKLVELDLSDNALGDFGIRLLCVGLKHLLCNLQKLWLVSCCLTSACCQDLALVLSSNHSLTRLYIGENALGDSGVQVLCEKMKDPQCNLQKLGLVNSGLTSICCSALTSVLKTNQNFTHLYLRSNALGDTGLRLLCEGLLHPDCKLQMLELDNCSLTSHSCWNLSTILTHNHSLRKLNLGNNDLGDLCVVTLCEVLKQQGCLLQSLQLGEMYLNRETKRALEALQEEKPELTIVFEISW

[3] = biological target: T1, NACHT, LRR and PYD domains-containing protein 3; experiment: Inhibition of NLRP3 in human THP-1 cells assessed as reduction in IL-1beta production pre incubated for 3 hrs followed by nigericin addition measured after 1 hrs by resazurin staining based assay; assay type: cell-based
[4] = Inhibition of NLRP3 in LPS induced PBMC (unknown origin) assessed as reduction in IL-1beta production preincubated 0.5 hrs followed by nigericin addition measured after 1 hrs by ELISA assay; assay type: cell-based
THP-1 [5] = experiment: Induction of pyroptosis in human THP-1 cells by AlphaLisa assay; assay type: functional, cell-based
[6] = biological target: T1, NACHT, LRR and PYD domains-containing protein 3; experiment: Inhibition of NLRP3 in human PBMC cells assessed as reduction in TNF alpha level preincubated for 30 mins followed by LPS addition measured after 6 hrs; assay type: cell-based
[7] = biological target: T1, NACHT, LRR and PYD domains-containing protein 3; experiment: Inhibition of NLRP3 in human PBMC cells assessed as reduction in IL-1beta production preincubated for 30 mins followed by LPS addition measured after 6 hrs; assay type: cell-based
[8] = biological target: T1, NACHT, LRR and PYD domains-containing protein 3; experiment: Inhibition of NLRP3 in LPS induced human THP-1 cells assessed as reduction in IL-1beta production preincubated for 3 hrs followed by nigericin addition measured after 1 hrs by resazurin staining based assay; assay type: cell-based
[9] = biological target: T1, NACHT, LRR and PYD domains-containing protein 3; experiment: Inhibition of NLRP3 in LPS induced human PBMC cells assessed as reduction in IL-1beta preincubated for 30 mins followed by ATP addition measured after 1 hrs HTRF assay; assay type: cell-based
[10] = biological target: T1, NACHT, LRR and PYD domains-containing protein 3; experiment: Inhibition of NLRP3 in human THP-1 cells assessed as reduction in IL-1beta production; assay type: cell-based
THP-1 [11] = experiment: Antiinflammatory activity against PMA-differentiated human THP-1 cells assessed as reduction of IL-1beta production measured after 2 hrs; assay type: functional, cell-based; details: THP-1, 2 h
[12] = biological target: T1, NACHT, LRR and PYD domains-containing protein 3; experiment: Inhibition of NLRP3 (unknown origin) assessed as reduction of IL-1beta production
[13] = Lipophilicity, logP of the compound; assay type: physicochemical; details: octanol/water
[14] = biological target: T2, NACHT, LRR and PYD domains-containing protein 3; experiment: Inhibition of NLRP3 in mouse BMDM cells assessed as reduction in IL-1beta production measured after 3 hrs; assay type: cell-based
[15] = biological target: T1, NACHT, LRR and PYD domains-containing protein 3; experiment: Inhibition of NLRP3 in human THP-1 cells assessed as reduction in IL-1beta production by AlphaLISA assay; assay type: cell-based
[16] = biological target: T1, NACHT, LRR and PYD domains-containing protein 3; experiment: Inhibition of NLRP3 in human THP-1 cells assessed as reduction in IL-1beta production measured after 3 hrs; assay type: cell-based
[17] = biological target: T1, NACHT, LRR and PYD domains-containing protein 3; experiment: Inhibition of NLRP3 in human THP-1 cells assessed as reduction in IL-1beta production by ELISA; assay type: cell-based
THP-1 [18] = experiment: Induction of pyroptosis in human THP-1 cells; assay type: functional, cell-based
[19] = biological target: T2, NACHT, LRR and PYD domains-containing protein 3; experiment: Inhibition of NLRP3 in LPS induced mouse BV-2 cells assessed as reduction in IL-1beta production pretreated for 30 mins followed by nigericin addition measured after 2 hrs by ELISA assay; assay type: cell-based
[20] = biological target: T1, NACHT, LRR and PYD domains-containing protein 3; experiment: Inhibition of NLRP3 in human THP-1 cells assessed as reduction in IL-1beta production measured after 1 hrs by ELISA assay; assay type: cell-based
[21] = biological target: T2, NACHT, LRR and PYD domains-containing protein 3; experiment: Inhibition of NLRP3 in LPS induced mouse BMDM cells assessed as reduction in IL-1beta production measured after 30 mins by ELISA assay; assay type: cell-based
[22] = biological target: T1, NACHT, LRR and PYD domains-containing protein 3; experiment: Inhibition of NLRP3 in human THP-1 cells assessed as reduction in IL-1beta production measured after 3 hrs by AlphaLISA assay; assay type: cell-based
[23] = biological target: T1, NACHT, LRR and PYD domains-containing protein 3; experiment: Inhibition of NLRP3 in human PBMC cells assessed as reduction in Il-1beta production preincubated for 0.5 hrs followed by LPS treatment for […] and further addition of ATP measured after 45 mins; assay type: cell-based
[24] = biological target: T1, NACHT, LRR and PYD domains-containing protein 3; experiment: Inhibition of NLRP3 in human PBMC cells assessed as reduction in TNFalpha level preincubated for 0.5 hrs followed by LPS treatment for […] and further addition of ATP measured after 45 mins; assay type: cell-based

- IC50 [3]: ≤ 40 nM
Compound: CN(C)Cc1cc(S(=O)(=O)NC(=O)Nc2c3c(cc4c2CCC4)CCC3)nn1C1CC1

- IC50 (THP-1 [5]): 0.4 nM
Compound: CCN1CCC[C@@H](Nc2nc3nc(-c4c(C)cc(Cl)cc4O)ccc3o2)C1

- IC50 [8]: < 1000 nM
Compound: Cn1ncc2ccc(S(=O)(=O)NC(=O)Nc3c4c(cc5c3CCC5)CCC4)cc21

- IC50 [9]: < 1000 nM
Compound: CC(C)OC(=O)c1nc(Nc2c3c(cc4c2CCC4)CCC3)cs1

- IC50 [10]: 3 nM
Compound: Cc1cc(Br)cc(C)c1-n1cc2c(=O)[nH]c(N3C=COCC3)nc2n1

- IC50 (THP-1 [11]): 200 nM
Compound: O=C(Nc1c2c(cc3c1CC3)CCC2)NS(=O)(=O)c1cnn2c1OCCC2

- IC50 [10]: < 250 nM
Compound: Cc1cc2c(c(NC(=O)N[S+](=N)([O-])c3ccccc3)c1-c1ccnc(OC3CCN(C)CC3)c1)CCC2 (stereo not given)

- IC50 (THP-1 [5]): 27.4 nM
Compound: Cc1cc(Cl)cc(O)c1-c1ccc2oc(N[C@@H]3CCCN4CCC[C@@H]34)nc2n1

- IC50 [14]: < 100 nM
Compound: CC1(O)CCCc2oc(S(=O)(=O)NC(=O)Nc3c4c(c(Br)c5c3CCC5)CCC4)cc21 (stereo not given)

- IC50 [15]: < 100 nM
Compound: O=C1Nc2c(ccc3c2CCC3)-c2ccnc(c2)OCCn2cc(F)c(n2)S(=O)(=O)N1

- IC50 [17]: < 1000 nM
Compound: CC1(C)CCc2c1cc1c(c2NC(=O)NS(=O)(=O)c2ccnn2CCCB(O)O)CCC1

- EC50 (THP-1 [18]): < 20 nM
Compound: CN1CCC[C@@H](Nc2nnc(-c3ccc(C(F)(F)F)cc3O)c3c2ncn3C)C1

- IC50 [4]: < 10 nM
Compound: CCOC(=O)C(Cn1cc(F)cn1)OC(=O)Nc1c2c(cc3c1CCC3)CCC2 (stereo not given)

- EC50 (THP-1 [18]): < 20 nM
Compound: CN1CCC[C@@H](Nc2nnc(-c3ccc(C(F)(F)F)cc3O)c3c2nc(C2CC2)n3C)C1

- EC50 (THP-1 [18]): < 20 nM
Compound: CN1CCC[C@@H](Nc2nnc(-c3ccc(C(F)(F)F)cc3O)c3ncn(C)c23)C1

- IC50 [19]: 2050 nM
Compound: COC(=O)c1cccc(C(=O)NC2(C(=O)Nc3c4c(cc5c3CCC5)CCC4)CC2)c1

- IC50 [21]: 900 nM
Compound: NS(=O)(=O)c1cccc(/C=C2\SC(=S)N(CC3CCCCC3)C2=O)c1

- IC50 [22]: < 500 nM
Compound: COC(C)(C)Cn1ccc(S(=O)(=O)c2nnc(Nc3c4c(cc5c3CCC5)CCC4)[nH]2)n1

- IC50 [19]: 3930 nM
Compound: CC(C)(O)c1coc(S(=O)(=O)NC(=O)Nc2c3c(cc4c2CCC4)CCC3)c1

Second part, the molecule before the results:

Compound: C=C1C(=O)[C@@]23C(CC[C@@H]1[C@H]2OC(=O)/C=C/c1ccc(N2CCOCC2)cc1)[C@@]12CO[C@]3(O)[C@@H](O)[C@@H]1C(C)(C)CC[C@@H]2O (stereo not given in full)
- inhibition [1]: 2.94%

Compound: O=C(CBr)C1CCC1
- IC50 [2]: ~5000 nM

Compound: CC(C)OC(=O)C(Cc1ncccn1)OC(=O)N[C@@H](C)c1ccc(C(F)(F)F)cc1 (stereo not given in full)
- IC50 [4]: < 1000 nM

Compound: CC(C)c1nn(CC(=O)Nc2ccncn2)c(=O)c2cc(I)nn12
- IC50 [6]: > 10000 nM
- IC50 [7]: < 12 nM

Compound: CC(C)c1nn(CC(=O)Nc2ccc3nncn3c2)c(=O)cc1Oc1ccccc1
- EC50 [7]: > 15000 nM

Compound: CC(C)c1cc(F)cc(C(C)C)c1NC(=O)N=[S+](N)([O-])c1ccc2ccccc2c1 (stereo not given)
- IC50 [10]: > 30000 nM

Compound: CC(C)c1nn(CC(=O)N[C@H]2C[C@](C)(O)C2)c(=O)c2ccc(Br)cc12
- IC50 [6]: > 10000 nM
- IC50 [7]: < 25 nM

Compound: COc1ccc(Cl)cc1C(=O)NCCc1ccc(S(=O)(=O)NO)cc1
- IC50 [12]: 8450 nM
- logP [13]: 0.19

Compound: CC(C)c1cc(F)cc(C(C)C)c1NC(=O)N=[S+](N)([O-])c1ccccc1-c1ccccc1 (stereo not given)
- IC50 [10]: > 30000 nM

Compound: CC(C)c1cc(NC(=O)NS(=O)(=O)C(c2cnn(C)c2)C2CCCN(C)C2)c(C(C)C)s1 (stereo not given)
- IC50 [16]: < 100 nM

Compound: CCc1c(-c2cccc(F)c2)c(C(C)C)nn(CC(=O)Nc2ncncc2F)c1=O
- IC50 [20]: 35300 nM

Compound: CC(C)c1nn(CC(=O)Nc2ccncn2)c(=O)c2cccn12
- IC50 [23]: > 10000 nM
- IC50 [24]: > 10000 nM
